Experimental data: publication PMC9403987 (Frontiers in Oncology, 2022)

Assays:
LI1088 = experiment: Subcutaneous LI1088 liver cancer xenograft; format: in vivo, BALB/c nude mice; conditions: 25 mg/kg daily oral, 28 days, measured day 25
Experimental: (§1) The efficacy of GLR2007 was evaluated in human GBM and breast cancer orthotopic cell-line-derived xenografts in NOD/SCID mice (Shanghai Lingchang Biotechnology Co. Ltd, Shanghai, China) and BALB/c nude mice (Shanghai Sino-British SIPPR/BK Laboratory Animal Co. Ltd, Shanghai, China), and human lung, colorectal, and liver cancer subcutaneous cell-line-derived xenografts in BALB/c nude mice (Nanjing University National Resource Center, Nanjing, China, or Beijing Anikeeper Biotech Co., Beijing, China). Mice were maintained in humidity- and temperature-controlled conditions with food and water available ad libitum. For subcutaneous models, female BALB/c nude mice were inoculated at 4–8 weeks old with 3×10^6–1×10^7 tumor cells (see Table 1 for xenograft model cell types) in the right flank for tumor development. Randomization was performed when the mean tumor volume reached 118–171 mm^3.

[1] = set-up: method as in PMID 26149830, PMID 20354191; conditions: within 5 minutes after intravenous administration of 1 mg/kg; cited from earlier work
MCF-7 tumor cells = experiment: Orthotopic MCF-7 breast cancer xenograft; format: in vivo, NOD/SCID mice; conditions: 25 mg/kg daily oral
Experimental: as §1, with “libitum.” for “libitum. For subcutaneous models, female BALB/c nude mice were inoculated at 4–8 weeks old with 3×10^6–1×10^7 tumor cells (see Table 1 for xenograft model cell types) in the right flank for tumor development. Randomization was performed when the mean tumor volume reached 118–171 mm^3.”
In two breast cancer orthotopic xenograft models, female NOD/SCID mice were subcutaneously implanted with an estrogen pellet (17β-estradiol; Innovative Research of America, Sarasota, FL, USA) one day before tumor inoculation. Mice were inoculated at 6–7 weeks old with 2×10^7 MCF-7 tumor cells plus Matrigel in a 1:1 ratio in PBS at a mammary fat pad or in the right flank. Randomization was performed when the mean tumor volume reached 135–138 mm^3.

COLO 205 = experiment: Subcutaneous COLO 205 colorectal cancer xenograft; format: in vivo, BALB/c nude mice; conditions: 25 mg/kg daily oral, 26 days, measured day 25
Experimental: as §1

NCI-H1975 = experiment: Subcutaneous NCI-H1975 non-small cell lung cancer xenograft; format: in vivo, BALB/c nude mice; conditions: 25 mg/kg daily oral, 22 days, measured day 16
Experimental: as §1

BN2289 = experiment: Subcutaneous BN2289 glioblastoma xenograft; format: in vivo, BALB/c nude mice; conditions: 25 mg/kg daily oral, 28 days, measured day 21
Experimental: as §1

[2] = mouse, in vivo, po, 100 mg/kg; cited from earlier work

Row | Compound | TGI (%) (LI1088) | unbound brain-to-plasma partition coefficient (Kp,uu) [1] | TGI (%) (MCF-7 tumor cells; 21 days, measured day 21, 8 mice) | TGI (%) (MCF-7 tumor cells; 28 days, measured day 25, 10 mice) | TGI (%) (COLO 205) | TGI (%) (NCI-H1975) | TGI (%) (BN2289) | Kp,uu [2]
1 | CC(=O)c1c(C)c2cnc(Nc3ccc(N4CCNCC4)cn3)nc2n(C2CCCC2)c1=O [Palbociclib, palbociclib, reference compound] | 16.4 | 0.01 | 45.5 | 77.7 | 52.9 | 33.6 | 34.0 | 
2 | CN(C)C(=O)c1cc2cnc(Nc3ccc(N4CCNCC4)cn3)nc2n1C1CCCC1 [ribociclib] |  |  |  |  |  |  |  | 0.105
